Legend:
Experiment in all cases: Cell proliferation Ex.3
Assay type in all cases: cell-based
[1] = tested on: 5637
Description: (§1) A dose response relationship on cell proliferation was assessed for Compound 13 on 140 tumor cell lines. […] Cells were cultured in the appropriate media. For the assays, cells were seeded in white cell culture-treated flat and clear bottom multiwell plates and incubated at 37° C. overnight before compound was added. […] on the medium, cell plates were equilibrated to room temperature for one hour, CellTiterGlo reagent (Promega) was added and luminescence was measured approximately an hour later using a luminometer. Raw data were converted into percent cell viability relative to the high and low control, which were set to 10000 and 000, respectively.

[2] = tested on: ACHN; details: Homo sapiens
Description: as §1

[3] = tested on: ASPC1; details: Homo sapiens
Description: as §1

[4] = tested on: BXPC3; details: Homo sapiens, BXPC-3
Description: as §1

[5] = tested on: C33A; details: Homo sapiens, C-33-A
Description: as §1

[6] = tested on: CAKI1; details: Homo sapiens, CAKI-1
Description: as §1

[7] = tested on: CALU6; details: Homo sapiens, Calu-6
Description: as §1

[8] = tested on: COLO205; details: Homo sapiens, COLO 205
Description: as §1

[9] = tested on: COLO678; details: Homo sapiens, COLO-678
Description: as §1

[10] = tested on: HCT116; details: Homo sapiens, HCT-116
Description: as §1

[11] = tested on: HCT15; details: Homo sapiens, HCT-15
Description: as §1

[12] = tested on: HL-60; details: Homo sapiens
Description: as §1

[13] = tested on: JIMT1; details: Homo sapiens, JIMT-1
Description: as §1

[14] = tested on: K-562; details: Homo sapiens, K562
Description: as §1

[15] = tested on: MDAMB435; details: Homo sapiens, MDA-MB-435
Description: as §1

[16] = tested on: MDAMB436; details: Homo sapiens, MDA-MB-436
Description: as §1

[17] = tested on: NCI-H23; details: Homo sapiens
Description: as §1

[18] = tested on: NCI-H292; details: Homo sapiens
Description: as §1

[19] = tested on: NCIH460; details: Homo sapiens, NCI-H460
Description: as §1

[20] = tested on: PANC1; details: Homo sapiens, PANC-1
Description: as §1

[21] = tested on: RD; details: Homo sapiens
Description: as §1

[22] = tested on: SKBR3; details: Homo sapiens, SK-BR-3
Description: as §1

[23] = tested on: SU-DHL-10; details: Homo sapiens, SU-DHL10
Description: as §1

[24] = tested on: T24; details: Homo sapiens, T-24
Description: as §1

[25] = tested on: U2OS; details: Homo sapiens
Description: as §1

[26] = tested on: U87MG; details: Homo sapiens, U-87 MG
Description: as §1

SMILES: C#C[C@]1(CO)O[C@@H](n2cc(F)c(N)nc2=O)C[C@@H]1O [compound 9]
- IC50 ([1]; 5637, 72 h): > 10 µM
- IC50 ([1]; 5637, 120 h): > 10 µM
- IC50 ([1]; 5637, 168 h): > 10 µM
- IC50 ([2]; 72 h): > 10 µM
- IC50 ([2]; 120 h): 0.91 µM
- IC50 ([2]; 168 h): 0.94 µM
- IC50 ([3]; ASPC1, 72 h): > 10 µM
- IC50 ([3]; ASPC1, 120 h): 0.72 µM
- IC50 ([3]; ASPC1, 168 h): 0.49 µM
- IC50 ([4]; BXPC3, 72 h): > 10 µM
- IC50 ([4]; BXPC3, 120 h): 1.29 µM
- IC50 ([4]; BXPC3, 168 h): 0.59 µM
- IC50 ([5]; 72 h): > 10 µM
- IC50 ([5]; 120 h): 2.93 µM
- IC50 ([5]; 168 h): 3.07 µM
- IC50 ([6]; CAKI1, 72 h): > 10 µM
- IC50 ([6]; CAKI1, 120 h): > 10 µM
- IC50 ([6]; CAKI1, 168 h): > 10 µM
- IC50 ([7]; CALU6, 72 h): > 10 µM
- IC50 ([7]; CALU6, 120 h): > 10 µM
- IC50 ([7]; CALU6, 168 h): > 10 µM
- IC50 ([8]; COLO205, 72 h): > 10 µM
- IC50 ([8]; COLO205, 120 h): 1.15 µM
- IC50 ([8]; COLO205, 168 h): 0.87 µM
- IC50 ([9]; COLO678, 72 h): > 10 µM
- IC50 ([9]; COLO678, 120 h): > 10 µM
- IC50 ([9]; COLO678, 168 h): > 10 µM
- IC50 ([10]; HCT116, 72 h): > 10 µM
- IC50 ([10]; HCT116, 120 h): > 10 µM
- IC50 ([10]; HCT116, 168 h): > 10 µM
- IC50 ([11]; HCT15, 72 h): > 10 µM
- IC50 ([11]; HCT15, 120 h): > 10 µM
- IC50 ([11]; HCT15, 168 h): > 10 µM
- IC50 ([12]; HL-60, 72 h): > 10 µM
- IC50 ([12]; HL-60, 120 h): > 10 µM
- IC50 ([12]; HL-60, 168 h): > 10 µM
- IC50 ([13]; JIMT1, 72 h): > 10 µM
- IC50 ([13]; JIMT1, 120 h): > 10 µM
- IC50 ([13]; JIMT1, 168 h): > 10 µM
- IC50 ([14]; K-562, 72 h): > 10 µM
- IC50 ([14]; K-562, 120 h): > 10 µM
- IC50 ([14]; K-562, 168 h): > 10 µM
- IC50 ([15]; MDAMB435, 72 h): > 10 µM
- IC50 ([15]; MDAMB435, 120 h): > 10 µM
- IC50 ([15]; MDAMB435, 168 h): > 10 µM
- IC50 ([16]; MDAMB436, 72 h): > 10 µM
- IC50 ([16]; MDAMB436, 120 h): > 10 µM
- IC50 ([16]; MDAMB436, 168 h): > 10 µM
- IC50 ([17]; NCI-H23, 72 h): > 10 µM
- IC50 ([17]; NCI-H23, 120 h): > 10 µM
- IC50 ([17]; NCI-H23, 168 h): > 10 µM
- IC50 ([18]; NCI-H292, 72 h): > 10 µM
- IC50 ([18]; NCI-H292, 120 h): > 10 µM
- IC50 ([18]; NCI-H292, 168 h): > 10 µM
- IC50 ([19]; NCIH460, 72 h): > 10 µM
- IC50 ([19]; NCIH460, 120 h): > 10 µM
- IC50 ([19]; NCIH460, 168 h): > 10 µM
- IC50 ([20]; PANC1, 72 h): > 10 µM
- IC50 ([20]; PANC1, 120 h): > 10 µM
- IC50 ([20]; PANC1, 168 h): > 10 µM
- IC50 ([21]; 72 h): > 10 µM
- IC50 ([21]; 120 h): > 10 µM
- IC50 ([21]; 168 h): > 10 µM
- IC50 ([22]; SKBR3, 72 h): 1.45 µM
- IC50 ([22]; SKBR3, 120 h): 0.96 µM
- IC50 ([22]; SKBR3, 168 h): 0.37 µM
- IC50 ([23]; SU-DHL-10, 72 h): 0.14 µM
- IC50 ([23]; SU-DHL-10, 120 h): 61.5 µM
- IC50 ([23]; SU-DHL-10, 168 h): 3.86 µM
- IC50 ([24]; T24, 72 h): > 10 µM
- IC50 ([24]; T24, 120 h): > 10 µM
- IC50 ([24]; T24, 168 h): > 10 µM
- IC50 ([25]; 72 h): > 10 µM
- IC50 ([25]; 120 h): > 10 µM
- IC50 ([25]; 168 h): > 10 µM
- IC50 ([26]; 72 h): > 10 µM
- IC50 ([26]; 120 h): > 10 µM
- IC50 ([26]; 168 h): > 10 µM

Reference: patent publication US20230293526A1, “METHOD FOR TREATING CANCER WITH A REVERSE TRANSCRIPTASE INHIBITOR” (PrimeFour Therapeutics, Inc., priority 2020, published 2023)
